Source: patent EP1137645B1, “ALPHA-METHYLBENZYL-CONTAINING THIOUREA INHIBITORS OF HERPES VIRUSES CONTAINING A […] GROUP” (Wyeth, priority 1998, dated 2000)
In brackets after ≈: the same amount, converted by molar mass. Like-named read-outs stand apart in the source and are kept apart here.

Experiments:
VZV strain Ellen = experiment: VZV antiviral (ELISA) assay; format: cell-based; details: for inhibition at 10 µg/mL: read-out: % inhibition 10 ug/ml VZV
How it was run: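 HFF cells infected with VZV Ellen at multiplicity below 0.1 overnight, then mixed infected/uninfected cells seeded with compound in DMEM/2% FBS and incubated three days at 37°C, 5% CO2.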

[1] = test system: HCMV recombinant mutant virus whose genome contains the prokaryotic beta-glucuronidase gene; experiment: microbe, parasite or virus in culture; format: cell-based, human cytomegalovirus; details: Human betaherpesvirus 5, Fibroblast
How it was run: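 Human foreskin fibroblasts infected with HCMV recombinant carrying beta-glucuronidase under a viral promoter (e.g. RV145) in presence of compound. At 96 h post-infection, lysates assayed for beta-glucuronidase by colorimetric or fluorogenic substrate as replication readout; IC50 estimated from varying compound amounts.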

HSV- I = experiment: HSV antiviral (ELISA) assay; format: cell-based; details: read-out: IC50 (ug/ml) HSV
How it was run: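 Vero cells in DMEM with 2% FBS treated with compound 30 min before HSV-1 infection (MOI 0.006), then incubated ~24 h at 37°C. Viral replication measured by ELISA against glycoprotein D with β-galactosidase-linked secondary and fluorogenic substrate (ex 365/em 450 nm); IC50 relative to untreated fluorescence.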

[2] = Human alphaherpesvirus 3, HFF, read-out: IC50 (ug/ml) VZV
[3] = read-out: IC50 ug/ml HCMV, HCMV, human foreskin fibroblasts
[4] = Human alphaherpesvirus 3, HFF, read-out: IC50 (ug/ml) VZV, VZV strain Ellen, HFF cells, ELISA

Structure (SMILES)	inhibition at 10 µg/mL (VZV strain Ellen; Human alphaherpesvirus 3, HFF)	IC50 (VZV strain Ellen; [2])	IC50 [1, 3]	IC50 (HSV- I; HSV- I, Vero cells, ELISA)	IC50 (VZV strain Ellen; [4])	IC50 (HSV- I; Vero)	IC50 (VZV strain Ellen; Human alphaherpesvirus 3, VZV strain Ellen, HFF cells, ELISA, read-out: IC50 (ug/ml) VZV)	IC50 ([1]; read-out: IC50 ug/ml HCMV)
COc1cc(OC)c(NC(=S)Nc2ccc(NC(=O)c3cccc(O)c3)cc2)cc1Cl [Example 254, N-{4-[3-(5-Chloro-2,4-dimethoxy-phenyl)-thioureido]-phenyl}-3-hydroxy-benzamide]	110%	4 µg/mL (≈ 8.73 µM)	4 µg/mL (≈ 8.73 µM)	0.9 µg/mL (≈ 1.97 µM)	–	–	–	–
Cc1ccccc1C(C)NC(=S)Nc1ccc(NC(=O)c2ccccc2F)cc1 (stereo not drawn) [Example 775, 2-Fluoro-N-{4-[3-(1-o-tolyl-ethyl)-thioureido]-phenyl}-benzamide]	–	–	1 µg/mL (≈ 2.45 µM)	–	> 7.5 µg/mL	> 10 µg/mL	–	–
COC(=O)c1cccc(NC(=S)Nc2ccc(NC(=O)c3ccccc3F)cc2)c1 [Example 950, 3-{3-[4-(2-Fluoro-benzoylamino)-phenyl]-thioureido}-benzoic acid methyl ester]	–	–	–	8 µg/mL (≈ 18.9 µM)	–	–	> 10 µg/mL	> 10 µg/mL
CC(=O)c1cccc(NC(=S)Nc2ccc(NC(=O)c3ccccc3F)cc2)c1 [Example 965, N-{4-[3-(3-Acetyl-phenyl)-thioureido]-pbenyl}-2-fluoro-benzamide]	12%	> 10 µg/mL	> 10 µg/mL	5 µg/mL (≈ 12.3 µM)	–	–	–	–
COc1c(Cl)cc(NC(=S)Nc2ccc(NC(=O)c3ccc(F)cc3)cc2)cc1Cl [Example 133, N-{4-[3-(3,5-Dichloro-4-methoxy-phenyl)-thioureido]-phenyl}-4-fluoro-benzamide]	36%	> 10 µg/mL	0.6 µg/mL (≈ 1.29 µM)	7 µg/mL (≈ 15.1 µM)	–	–	–	–
COc1cc(OC)c(NC(=S)Nc2ccc(NC(=O)c3ccc(F)cc3F)cc2)cc1Cl [Example 188, N-{4-[3-(5-Chloro-2,4-dimethoxy-phenyl)-thioureido]-phenyl}-2,4-difluoro-benzamide]	22%	> 10 µg/mL	> 10 µg/mL	1.2 µg/mL (≈ 2.51 µM)	–	–	–	–
COc1cc(OC)c(NC(=S)Nc2ccc(NC(=O)c3cccc(F)c3)cc2)cc1Cl [Example 117, N-{4-[3-(5-Chloro-2,4-dimethoxy-phenyl)-thioureido]-phenyl}-3-fluoro-benzamide]	15%	> 10 µg/mL	3 µg/mL (≈ 6.52 µM)	0.3 µg/mL (≈ 0.652 µM)	–	–	–	–
O=C(Nc1ccc(NC(=S)Nc2ccc(OC(F)(F)F)c(Br)c2)cc1)c1ccccc1F [Example 549, N-{4-[3-(3-Bromo-4-trifluoromethoxy-phenyl)-thioureido]-phenyl}-2-fluoro-benzamide]	–	–	> 10 µg/mL	–	> 10 µg/mL	> 10 µg/mL	–	–
CC(NC(=S)Nc1ccc(NC(=O)c2ccccc2F)cc1)c1cccc(Br)c1 (stereo not drawn) [Example 780, N-(4-{3-[1-(3-Bromo-phenyl)-ethyl]-thioureido}-phenyl)-2-fluoro-benzamide]	–	–	1 µg/mL (≈ 2.12 µM)	–	1.2 µg/mL (≈ 2.54 µM)	> 10 µg/mL	–	–
O=C(Nc1ccc(NC(=S)Nc2ccc(I)c(Cl)c2)cc1)c1ccccc1F [Example 916, N-{4-[3-(3-Chloro-4-iodo-phenyl)-thioureido]-phenyl}-2-fluoro-benzamide]	30%	> 10 µg/mL	3 µg/mL (≈ 5.71 µM)	> 10 µg/mL	–	–	–	–
COc1cc(OC)c(NC(=S)Nc2ccc(NC(=O)c3cccc([N+](=O)[O-])c3)cc2)cc1Cl [Example 135, N-{4-[3-(5-Chloro-2,4-dimethoxy-phenyl)-thioureido]-phenyl}-3-nitro-benzamide]	0%	> 10 µg/mL	5 µg/mL (≈ 10.3 µM)	1.5 µg/mL (≈ 3.08 µM)	–	–	–	–
CC(C)Oc1ccc(NC(=S)Nc2ccc(NC(=O)c3ccccc3F)cc2)cc1Cl [Example 808, N-{4-[3-(3-Chloro-4-isopropoxy-phenyl)-thioureido]-phenyl}-2-fluoro-benzamide]	–	–	> 10 µg/mL	–	> 7.5 µg/mL	> 10 µg/mL	–	–
COc1cc(OC)c(NC(=S)Nc2ccc(NC(=O)c3ccccc3OC(C)=O)cc2)cc1Cl [Example 115, Acetic acid 2-{4-[3-(5-chloro-2,4-dimethoxy-phenyl)-thioureido]-phenyl-carbamoyl}-phenyl ester]	98%	4 µg/mL (≈ 8 µM)	8 µg/mL (≈ 16 µM)	4 µg/mL (≈ 8 µM)	–	–	–	–
CS(=O)(=O)Nc1ccc(NC(=S)Nc2ccc(NC(=O)c3ccccc3F)cc2)cc1Cl [Example 370, N-{4-[3-(3-Chloro-4-methanesulfonylamino-phenyl)-thioureido]-phenyl}-2-fluoro-benzamide]	16%	> 10 µg/mL	> 10 µg/mL	> 10 µg/mL	–	–	–	–
